One assay has as its target SMARCA4 (Homo sapiens, UniProt P51532). Nature of the assay: HiBiT assay for protein degradation, Hela SMARCA4-HiBiT cells (A series). It counts as cell-based. Details: fuse HiBiT to the carboxy terminus of SMARCA2 (Promega CS302365) or SMARCA4 (Promega CS3023225); host or cells: HeLa (CRISPR/Cas9 HiBiT knock-in). The note with it: Hela SMARCA4-HiBiT cells, 24 hours treatment; for DC50: read-out: SMARC A4 Hela HiBit DC50; for Dmax: read-out: SMARC A4 Hela HiBit Dmax. Summed up: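 SMARCA4 degradation was measured in HeLa cells in which HiBiT had been knocked into the SMARCA4 carboxy terminus via CRISPR/Cas9 (Promega CS3023225). Cells were maintained in DMEM with FBS and penicillin-streptomycin. At the end of treatment, SMARCA4 levels were read by lytic HiBiT luminescence (Nano-Glo®, Promega N3050), and data were analyzed with GraphPad Prism.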
For orientation: The HiBiT peptide binds its large partner to form an active luciferase.

The target in another assay is SMARCA2 (Homo sapiens, UniProt P51531). Description: HiBiT assay for protein degradation, Hela SMARCA2-HiBiT cells (A series).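 For SMARC A2 Hela HiBit Dmax (%): 24 h compound treatment.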 Format: cell-based. Details: Hela cells were genetically modified via CRISPR/Cas9 to fuse HiBiT to the carboxy terminus of SMARCA2; host or cells: HeLa (CRISPR/Cas9 HiBiT knock-in). The note with it: Hela SMARCA2-HiBiT cells, 24 hours treatment; for DC50: read-out: SMARC A2 Hela HiBit DC50; for Dmax: read-out: SMARC A2 Hela HiBit Dmax (%). Summed up:
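SMARCA2 degradation was measured in HeLa cells whose endogenous SMARCA2 carries a carboxy-terminal HiBiT tag introduced by CRISPR/Cas9 (Promega CS302365). Cells were maintained in DMEM with FBS and penicillin-streptomycin. SMARCA2 levels were read at the end of the experiment by Nano-Glo® HiBiT lytic luminescence (Promega N3050) and analyzed in GraphPad Prism.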

Chain of SMARCA2 (P51531 whole entry): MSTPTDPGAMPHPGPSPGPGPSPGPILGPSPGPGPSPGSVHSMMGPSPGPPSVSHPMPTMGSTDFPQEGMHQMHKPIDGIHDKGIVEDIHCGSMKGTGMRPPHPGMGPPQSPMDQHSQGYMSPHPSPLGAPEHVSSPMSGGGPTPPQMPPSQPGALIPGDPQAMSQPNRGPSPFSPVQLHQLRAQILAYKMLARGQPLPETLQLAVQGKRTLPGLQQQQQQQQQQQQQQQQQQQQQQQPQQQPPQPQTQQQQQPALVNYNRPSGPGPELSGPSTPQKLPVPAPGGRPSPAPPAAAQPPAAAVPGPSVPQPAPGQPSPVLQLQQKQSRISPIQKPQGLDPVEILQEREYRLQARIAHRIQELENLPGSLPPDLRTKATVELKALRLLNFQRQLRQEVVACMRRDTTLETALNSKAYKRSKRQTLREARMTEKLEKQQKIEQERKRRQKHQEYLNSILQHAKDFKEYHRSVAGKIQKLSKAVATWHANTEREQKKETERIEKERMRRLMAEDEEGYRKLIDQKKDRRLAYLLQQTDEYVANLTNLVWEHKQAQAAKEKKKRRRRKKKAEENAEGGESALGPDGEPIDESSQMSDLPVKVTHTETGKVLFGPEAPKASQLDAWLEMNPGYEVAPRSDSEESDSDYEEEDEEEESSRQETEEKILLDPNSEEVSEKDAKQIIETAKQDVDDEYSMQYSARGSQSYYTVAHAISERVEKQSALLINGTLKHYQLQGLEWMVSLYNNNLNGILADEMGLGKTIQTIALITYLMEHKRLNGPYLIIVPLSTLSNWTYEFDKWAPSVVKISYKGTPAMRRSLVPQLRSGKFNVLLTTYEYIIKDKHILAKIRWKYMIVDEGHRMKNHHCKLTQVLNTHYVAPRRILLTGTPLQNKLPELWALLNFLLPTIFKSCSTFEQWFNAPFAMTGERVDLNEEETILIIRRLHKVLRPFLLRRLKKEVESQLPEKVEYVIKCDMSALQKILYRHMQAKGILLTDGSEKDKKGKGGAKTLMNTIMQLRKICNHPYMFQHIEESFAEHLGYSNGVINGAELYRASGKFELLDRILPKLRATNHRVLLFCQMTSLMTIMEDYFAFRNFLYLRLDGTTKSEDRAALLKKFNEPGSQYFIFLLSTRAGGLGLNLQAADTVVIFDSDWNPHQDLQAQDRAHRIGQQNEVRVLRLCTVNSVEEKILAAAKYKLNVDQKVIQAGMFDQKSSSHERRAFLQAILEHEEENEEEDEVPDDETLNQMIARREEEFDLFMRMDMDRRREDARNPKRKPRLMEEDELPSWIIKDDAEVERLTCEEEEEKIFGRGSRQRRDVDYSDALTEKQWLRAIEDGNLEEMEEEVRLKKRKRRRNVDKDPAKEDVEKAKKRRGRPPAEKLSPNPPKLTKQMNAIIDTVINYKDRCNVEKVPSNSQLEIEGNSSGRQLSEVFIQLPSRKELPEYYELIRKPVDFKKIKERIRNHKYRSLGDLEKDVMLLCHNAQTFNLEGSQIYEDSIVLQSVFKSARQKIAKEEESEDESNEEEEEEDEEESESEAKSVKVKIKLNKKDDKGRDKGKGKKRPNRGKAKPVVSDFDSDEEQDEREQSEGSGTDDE
Chain of SMARCA4 (P51532 whole entry): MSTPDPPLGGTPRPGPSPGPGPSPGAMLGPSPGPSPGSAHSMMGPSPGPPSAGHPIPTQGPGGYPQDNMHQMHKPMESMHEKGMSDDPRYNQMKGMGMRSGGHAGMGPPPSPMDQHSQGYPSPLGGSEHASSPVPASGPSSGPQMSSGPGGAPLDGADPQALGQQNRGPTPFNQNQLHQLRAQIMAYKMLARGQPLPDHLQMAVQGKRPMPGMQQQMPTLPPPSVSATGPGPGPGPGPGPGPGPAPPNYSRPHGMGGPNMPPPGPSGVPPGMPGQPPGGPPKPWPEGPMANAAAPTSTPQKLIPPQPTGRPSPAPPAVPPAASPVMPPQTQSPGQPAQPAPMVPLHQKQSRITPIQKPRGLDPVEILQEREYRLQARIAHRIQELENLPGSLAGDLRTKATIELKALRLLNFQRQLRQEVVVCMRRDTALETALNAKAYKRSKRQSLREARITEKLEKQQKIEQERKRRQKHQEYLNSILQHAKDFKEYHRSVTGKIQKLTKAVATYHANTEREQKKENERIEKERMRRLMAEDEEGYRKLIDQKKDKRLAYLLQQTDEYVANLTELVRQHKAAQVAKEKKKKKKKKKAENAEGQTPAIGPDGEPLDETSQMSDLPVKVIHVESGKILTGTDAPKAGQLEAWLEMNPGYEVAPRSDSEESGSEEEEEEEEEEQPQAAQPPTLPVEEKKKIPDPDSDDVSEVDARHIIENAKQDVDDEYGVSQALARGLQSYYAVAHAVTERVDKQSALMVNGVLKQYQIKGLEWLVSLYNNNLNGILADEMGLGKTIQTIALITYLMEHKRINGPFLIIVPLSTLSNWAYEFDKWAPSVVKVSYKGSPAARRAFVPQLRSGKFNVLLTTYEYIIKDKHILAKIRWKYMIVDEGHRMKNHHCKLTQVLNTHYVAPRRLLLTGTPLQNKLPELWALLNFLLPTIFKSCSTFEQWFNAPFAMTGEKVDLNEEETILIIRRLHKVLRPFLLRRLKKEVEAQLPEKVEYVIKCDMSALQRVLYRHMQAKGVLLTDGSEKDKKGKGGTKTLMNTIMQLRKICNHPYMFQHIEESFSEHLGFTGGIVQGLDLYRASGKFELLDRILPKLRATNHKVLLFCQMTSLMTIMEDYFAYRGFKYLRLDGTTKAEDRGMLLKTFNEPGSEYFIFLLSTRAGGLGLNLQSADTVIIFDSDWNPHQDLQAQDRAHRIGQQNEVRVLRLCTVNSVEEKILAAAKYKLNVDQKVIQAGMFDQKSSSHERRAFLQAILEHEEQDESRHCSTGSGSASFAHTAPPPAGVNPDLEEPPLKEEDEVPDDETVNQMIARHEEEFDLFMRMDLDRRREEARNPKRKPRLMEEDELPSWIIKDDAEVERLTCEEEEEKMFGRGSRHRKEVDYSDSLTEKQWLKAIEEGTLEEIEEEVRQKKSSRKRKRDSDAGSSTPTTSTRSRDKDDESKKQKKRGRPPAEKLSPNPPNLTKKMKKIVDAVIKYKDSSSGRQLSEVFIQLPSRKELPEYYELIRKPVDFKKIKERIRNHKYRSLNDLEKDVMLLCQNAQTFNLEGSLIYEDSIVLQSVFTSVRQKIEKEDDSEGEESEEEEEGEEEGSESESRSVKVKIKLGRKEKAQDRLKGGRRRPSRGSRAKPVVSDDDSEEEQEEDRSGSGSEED

In general, DC50 refers to the concentration at which degradation of the target reaches its halfway point. The Dmax is the largest share of the target that was removed. As for `Cc1ncsc1-c1ccc([C@H](CN2CCOCC2)NC(=O)[C@@H]2C[C@@H](O)CN2C(=O)[C@@H](n2cc([C@H]3CC[C@H](CN4CCC(c5ccc6c(c5)-n5c(nc(=O)c7c(Cl)cccc75)C6(C)C)CC4)CC3)nn2)C(C)(C)O)cc1` [Compound A159, (2S,4R)-1-((S)-2-(4-((1r,4S)-4-((4-(4-chloro-7,7-dimethyl-5-oxo-5,7-dihydroindolo[1,2-a]quinazolin-10-yl)piperidin-1-yl)methyl)cyclohexyl)-1H-1,2,3-triazol-1-yl)-3-hydroxy-3-methylbutanoyl)-4-hydroxy-N-((R)-1-(4-(4-methylthiazol-5-yl)phenyl)-2-morpholinoethyl)pyrrolidine-2-carboxamide], at SMARCA4, the DC50 was over 1000 nM and the Dmax was 50 to 69%. On SMARCA2, the DC50 is under 10 nM and the Dmax is over 90%.

In the case of `Cc1ncsc1-c1ccc([C@H](CN2CCOCC2)NC(=O)[C@@H]2C[C@@H](O)CN2C(=O)[C@@H](n2cc([C@H]3CC[C@H](CN4CCC(c5ccc6c(c5)-n5c(nc(=O)c7c(Br)cccc75)C65CCCCC5)CC4)CC3)nn2)C(C)(C)O)cc1` [Compound A160, (2S,4R)-1-((S)-2-(4-((1r,4S)-4-((4-(4′-bromo-5′-oxo-5′H-spiro[cyclohexane-1,7′-indolo[1,2-a]quinazolin]-10′-yl)piperidin-1-yl)methyl)cyclohexyl)-1H-1,2,3-triazol-1-yl)-3-hydroxy-3-methylbutanoyl)-4-hydroxy-N-((R)-1-(4-(4-methylthiazol-5-yl)phenyl)-2-morpholinoethyl)pyrrolidine-2-carboxamide], the DC50 was over 1000 nM at SMARCA4 and under 10 nM on SMARCA2. The Dmax on SMARCA4 is 50 to 69%; on SMARCA2 it was over 90%.

In the case of `Cc1nc(C)c(-c2ccc([C@H](CN3CCOCC3)NC(=O)[C@@H]3C[C@@H](O)CN3C(=O)[C@@H](n3cc([C@H]4CC[C@H](CN5CCC(c6ccc7c(c6)-n6c(nc(=O)c8c(Cl)cccc86)C76CCCCC6)CC5)CC4)nn3)C(C)(C)C)cc2)s1` [Compound A161, (2S,4R)-1-((S)-2-(4-((1r,4S)-4-((4-(4′-chloro-5′-oxo-5′H-spiro[cyclohexane-1,7′-indolo[1,2-a]quinazolin]-10′-yl)piperidin-1-yl)methyl)cyclohexyl)-1H-1,2,3-triazol-1-yl)-3,3-dimethylbutanoyl)-N—((R)-1-(4-(2,4-dimethylthiazol-5-yl)phenyl)-2-morpholinoethyl)-4-hydroxypyrrolidine-2-carboxamide], on SMARCA4, the DC50 fell in the range of 100 to 1000 nM and the Dmax was 50 to 69%. Further, on SMARCA2, the DC50 is under 10 nM and the Dmax is over 90%.

`CC(C)(C)[C@@H](C(=O)N1C[C@H](O)C[C@H]1C(=O)N[C@@H](CN1CCOCC1)c1ccc(-c2ccccc2)cc1)n1cc([C@H]2CC[C@H](CN3CCC(c4ccc5c(c4)-n4c(nc(=O)c6c(Cl)cccc64)C54CCCCC4)CC3)CC2)nn1` [Compound A162, (2S,4R)—N—((R)-1-([1,1′-biphenyl]-4-yl)-2-morpholinoethyl)-1-((S)-2-(4-((1r,4S)-4-((4-(4′-chloro-5′-oxo-5′H-spiro[cyclohexane-1,7′-indolo[1,2-a]quinazolin]-10′-yl)piperidin-1-yl)methyl)cyclohexyl)-1H-1,2,3-triazol-1-yl)-3,3-dimethylbutanoyl)-4-hydroxypyrrolidine-2-carboxamide]: at SMARCA4, the DC50 lay in the range of 100 to 1000 nM and the greatest degradation seen (Dmax) was in the range of 50 to 69%. Moreover, on SMARCA2, the DC50 was under 10 nM and the Dmax was over 90%.

Values taken from US20260092071A1, “COMPOUNDS AND COMPOSITIONS AS SMARCA2/4 DEGRADERS AND USES THEREOF” (REGENTS OF THE UNIVERSITY OF MICHIGAN, priority 2022, published 2026).
